Reference: patent US10683553B2, “Method for determining sensitivity to simultaneous inhibitor against PARP and Tankyrase” (THE ASAN FOUNDATION, priority 2015, dated 2020)

Legend:
[1] = tested on: KM12C colon cancer cell line; assay: MTS cell viability / IC50; type: cell-based, human
Protocol: (§1) The present inventors conducted an in vitro cell base assay to analyze the anticancer activity of Compound A, which is a novel PARP/Tankyrase simultaneous inhibitor, in 18 human colon cancer cell lines (Korean Cell Line Bank and ATCC purchased), and the cell viability and IC50 of the cell lines for Compound A, the novel PARP/Tankyrase simultaneous inhibitor, were measured.
(§2) As the experimental conditions and methods, a total of 18 human colon cancer cell lines were cultured in RPMI1640 (Roswell Park Memorial Institute 1640; 10% FBS, 1% penicillin/streptomycin), and each cell line was cultured in 96 well plate for 2×10^3 per well at 37° C. for 24 hours and the novel PARP/Tankyrase simultaneous inhibitor, Compound A, was diluted by a multiple of 2 at a maximum of 100 μM and a minimum of 0.390625 μM (100 μM, 50 μM, 25 μM, 12.5 μM, 6.25 μM, 3.125 μM, 1.5625 μM, 0.78125 μM and 0.390625 μM). After the treatment, it was cultured at 37° C. for 72 hours. As for the drug treatment group and non-treatment group, the cell viability of each cell line was measured by MTS analysis (Promega, CellTiter 96 AQeous One Solution) and the IC50 of each cell line was measured using the PRISM program.
(§3) The present inventors analyzed the correlation of 18 human colon cancer cell lines, an anti-cancer effect of Compound A which is a novel PARP/Tankyrase simultaneous inhibitor and the genotype of the p53 gene through an in vitro cell base assay in the same experimental method as Example 1 in 18 human colon cancer cell lines.
(§4) In order to analyze the anticancer activity of Compounds A and B, which are PARP/Tankyrase simultaneous inhibitors, in four types of human colon cancer cell lines of RKO (p53 WT/LIG4 MT), HCT8 (p53 WT, LIG4 WT), SW620 (p53 MT, LIG4 WT), and KM12C (p53 MT, LIG4 MT) with different p53 and LIG4 genotypes, the present inventors measured the cell viability and IC50 of cell lines for Compounds A and B, which are PARP/Tankyrase simultaneous inhibitors, through in vitro cell base assay. The conditions and methods of the experiment were as follows: Four types of human colon cancer cell lines were cultured in RPMI1640 (10% FBS, 1% penicillin/streptomycin), and each cell line was cultured in 96 well plate for 2×10^3 per well at 37° C. for 24 hours, and the novel PARP/Tankyrase simultaneous inhibitor, Compound A, was diluted by a multiple of 2 at a maximum of 100 μM and a minimum of 0.390625 μM (100 μM, 50 μM, 25 μM, 12.5 μM, 6.25 μM, 3.125 μM, 1.5625 μM, 0.78125 μM and 0.390625 μM). After the treatment, it was cultured at 37° C. for 72 hours. As for the drug treatment group and non-treatment group, the cell viability of each cell line was measured by MTS analysis (Promega, CellTiter 96 AQeous One Solution) and the IC50 of each cell line was measured using the PRISM program.

[2] = tested on: RKO human colon cancer cell line; assay: Trypan blue apoptosis with overexpressed mutant p53 or normal LIG4; type: cell-based; conditions: 25 μM and 50 μM, 48 hours
Protocol: In order to analyze the degree of apoptosis of Compound A, which is a novel PARP/Tankyrase simultaneous inhibitor according to the expression of mutant type p53 and normal type LIG4 when the p53 genotype is a normal type and an LIG4 genotype is a mutant type, the RKO human colon cancer cell line in which the p53 gene is a normal type and an LIG4 genotype is a mutant type was cultured in the same manner as in Example 7. The p53 mutant type plasmid DNA and the plasmid DNA in which an LIG4 genotype is a normal type were infused into the cells for 48 hours for overexpression at 37° C., and then Compound A, which is a novel PARP/Tankyrase simultaneous inhibitor, and olaparip, which is a competitive drug PARP inhibitor, were treated with 25 μM and 50 μM, respectively, for 48 hours. The number of cells was measured by trypan blue staining assay to confirm the degree of apoptosis.
As in Example 12, in order to analyze the degree of apoptosis of Compound B, which is a novel PARP/Tankyrase simultaneous inhibitor, according to the expression of a mutant type p53 and a normal type LIG4 when the p53 genotype is a normal type and an LIG4 genotype is a mutant type, the present inventors treated a novel PARP/Tankyrase simultaneous inhibitor, Compound B, and the competitive drug PARP inhibitor, olaparib, while overexpressing the p53 mutant type and the LIG4 normal type in the RKO human colon cancer cell line in which the p53 gene is a normal type and an LIG4 genotype is a mutant type. Then, the number of cells was measured by trypan blue staining assay to confirm the degree of apoptosis. […] After 48 hours of culturing, the number of cells was measured by trypan blue staining assay and the degree of apoptosis was confirmed.

[3] = tested on: HCT8 colon cancer cell line; assay: MTS cell viability / IC50; type: cell-based; conditions: Homo sapiens, HCT-8
Protocol: as §1, §2, §3, §4

[4] = tested on: RKO colon cancer cell line; assay: MTS cell viability / IC50; type: cell-based; conditions: Homo sapiens
Protocol: as §1, §2, §3, §4

[5] = tested on: SW620 colon cancer cell line; assay: MTS cell viability / IC50; type: cell-based; conditions: Homo sapiens, SW-620
Protocol: as §1, §2, §3, §4

[6] = RKO overexpressing LIG4 normal type gene vs control group (empty)

With N#Cc1ccc(N2CCN(Cc3ccc4c5c(c(=O)[nH]c4c3)CCCN5)CC2)nc1 [Compound B, 6-{4-[(5-oxo-1,2,3,4,5,6-hexahydrobenzo[h][1,6]naphthyridin-8-yl)methyl]piperazin-1-yl}nicotinonitrile] the IC50 ([1]; Homo sapiens, KM12C (p53mt/LIG4mt), MTS, 72 hours) was greater than 100 µM, the “degree of apoptosis (trypan blue cell count)” value (shortened to “degree of apoptosis”) [2, 6] was “apoptosis was reduced” and the IC50 ([3]; HCT8 (p53wt/LIG4wt), MTS, 72 hours) was 62.5 µM. For the same molecule, the IC50 ([4]; RKO (p53wt/LIG4mt), MTS, 72 hours) was 12.5 µM and the IC50 ([5]; SW620 (p53mt/LIG4wt), MTS, 72 hours) was greater than 100 µM.

Molecule CCOc1cc(CN(C)C)cc2[nH]c(=O)c3c(c12)NCCC3 [Compound A, 8-[(dimethylamino)methyl]-10-ethoxy-1,2,3,4-tetrahydrobenzo[h][1,6]naphthyridin-5(6H)-one] has an IC50 ([1]; Homo sapiens, KM12C, p53 Mutant type cell line) greater than 100 µM, an IC50 ([1]; Homo sapiens, KM12C, MTS, 72 hours) greater than 100 µM and an IC50 ([1]; KM12C (p53mt/LIG4mt), MTS, 72 hours) greater than 100 µM. The “degree of apoptosis” value [2, 6] was “apoptosis was reduced”, the “degree of apoptosis” value ([2]; RKO overexpressing p53 mutant type gene vs control group (empty)) was “apoptosis was reduced” and the IC50 ([3]; HCT8, p53 Wild-type cell line) was 39.5 µM. It also gave an IC50 ([3]; HCT8, MTS, 72 hours) of 39.5 µM, an IC50 ([4]; RKO, p53 Wild-type cell line) of 12.3 µM and an IC50 ([4]; RKO, MTS, 72 hours) of 23.7 µM. It also gave an IC50 ([5]; SW620, p53 Mutant type cell line) of 96.7 µM and an IC50 ([5]; SW620, MTS, 72 hours) of 96.7 µM.
